Assays:
[1] = test system: T80 human breast cancer cells; assay: Viable cell count on hemocytometer with trypan blue exclusion; assay type: cell-based; details: low and high doses, 24, 48, 72 hours, FIG. 2 panel 180
Description: (§1) Cell culture: T80 and T47D human breast cancer cells were routinely cultured in DMEM supplemented with 10% fetal calf serum (FCS) (Biological Industries, Beit Haemek, Israel), 4 mM glutamine (Biological Ind.), 100 u/ml penicillin, 0.1 milligram/milliliter streptomycin, 12.5 units/milliliter nystatin (Biological Ind.) and 0.2 units/milliliter insulin (Lilly, Fegersheim, France).
(§2) About 2×10^5 cells were plated on 6 well-plates and left overnight to adhere. Two different concentrations of different drugs were added for a period of 24, 48 and 72 hours and then cells were harvested with trypsin, centrifuged, and resuspended in culture medium until staining.
(§3) Navelbine and 5-Fluorouracil (5FU) where added at low and high doses to T80 and T47D cells respectively for 24, 48, and 72 hours. The cells were counted on a hemocytometer, using trypan blue for exclusion of dead cells, for the purpose of Electro-optical scanner -independent estimation of drug efficacy.

[2] = test system: T80 human breast cancer cells; assay: FDA fluorescence polarization, Electro-optical scanner (CellScan); assay type: cell-based; details: FIG. 5 panel 190
Description: as §2
(§4) Cell staining and loading: Three samples were prepared for each treatment at a specific time point and stained each with a different dye: fluorescein diacetate (FDA), rhodamine 123 (Rh123), and acridine orange (AO). […]
(§5) Cells in suspension were stained for 5 minutes with FDA at a final concentration of 2.4 micromolar. The cells were then loaded on the cell carrier, washed twice with PBS supplemented with Mg^+2 and Ca^+2, and fluorescence intensity and polarization were measured by an He/Cd laser-based CellScan™ electro-optical scanner. […]
(§6) For the excitation of FDA-stained cells an He/Cd laser was utilized (442 nm, excitation power of 4.5 microwatt) and emission measured at 527 nm. For the detection of AO and Rh123-stained cells an Argon laser was utilized (488 nm, excitation power of 15 microwatt) and emission measured at 530 nm.
(§7) The fluorescence emission of an area containing 20×20 wells was measured using a preset photon counting mode in which the same number of photons is counted for each cell (10,000), canceling differences in precision from strong and weak-emitting cells. […]

[3] = test system: T80 human breast cancer cells; assay: AO fluorescence intensity, Electro-optical scanner (CellScan); assay type: cell-based; details: one day after starting treatment, FIG. 6 panels 192-194
Description: as §2
(§8) Cell staining and loading: Three samples were prepared for each treatment at a specific time point and stained each with a different dye: fluorescein diacetate (FDA), rhodamine 123 (Rh123), and acridine orange (AO).
(§9) AO is usually used as a direct probe for nucleic acids in fixed or permeabilized cells. When used under appropriate conditions of concentration and pH it gives bright green fluorescence when bound to double-stranded DNA and red deep fluorescence when bound to single strand RNA and can serve for estimation of cellular DNA content and transcriptional activity. AO was added directly to the cell carrier loaded with cells for 5 minutes at a final concentration of 10 microgram/milliliter, washed twice directly on the grid and measured on an Argon laser-based Electro-optical scanner. […]
(§10) For the excitation of FDA-stained cells an He/Cd laser was utilized (442 nm, excitation power of 4.5 microwatt) and emission measured at 527 nm. For the detection of AO and Rh123-stained cells an Argon laser was utilized (488 nm, excitation power of 15 microwatt) and emission measured at 530 nm. […]

[4] = test system: T80 human breast cancer cells; assay: Rh123 fluorescence intensity, Electro-optical scanner (CellScan)
[5] = test system: T47D human breast cancer cells; assay: Viable cell count on hemocytometer with trypan blue exclusion; assay type: cell-based; details: low and high doses, 24, 48, 72 hours, FIG. 2 panel 181
Description: as §1, §2, §3

[6] = test system: T47D human breast cancer cells; assay: Rh123 fluorescence intensity, Electro-optical scanner (CellScan); assay type: cell-based
Description: as §2, §4
Rh123 (1 microgram/milliliter final concentration) was added to cells suspended in culture medium for 30 minutes at 37° C. Then the cells were washed twice with cold PBS supplemented with Mg^+2 and Ca^+2, loaded on the cell carrier and fluorescence intensity and polarization were measured by an Argon laser-based Electro-optical scanner. […]
as §6, §7

[7] = test system: T47D human breast cancer cells; assay: FDA fluorescence polarization, Electro-optical scanner (CellScan); assay type: cell-based; details: FIG. 5 panel 191
Description: as §2, §4, §5, §6, §7

[8] = test system: T47D human breast cancer cells; assay: AO fluorescence intensity, Electro-optical scanner (CellScan); assay type: cell-based; details: FIG. 6 panels 195-197
Description: as §2, §8, §9, §10

SMILES	effect on number of viable cells counted (trypan blue exclusion) [1]	change of mean polarization of FDA fluorescence [2]	change of mean fluorescence intensity of AO stained cells, measured one-cell-at-a-time [3]	change in Rh123 fluorescence intensity versus control untreated cells ([4]; FIG. 3 panel 182)	change of mean fluorescence intensity of Rh123 stained cells, measured one-cell-at-a-time ([4]; one day after starting treatment, FIG. 4 panels 184-186)	effect on number of viable cells counted (trypan blue exclusion) [5]	change in Rh123 fluorescence intensity versus control untreated cells ([6]; FIG. 3 panel 183)	change of mean fluorescence intensity of Rh123 stained cells, measured one-cell-at-a-time ([6]; FIG. 4 panels 187-189)	change of mean polarization of FDA fluorescence [7]	change of mean fluorescence intensity of AO stained cells, measured one-cell-at-a-time [8]
CCC1=C[C@@H]2CN(C1)Cc1c([nH]c3ccccc13)[C@@](C(=O)OC)(c1cc3c(cc1OC)N(C)[C@H]1[C@@](O)(C(=O)OC)[C@H](OC(C)=O)[C@]4(CC)C=CCN5CC[C@]31[C@@H]54)C2 [Navelbine]	cytotoxic effect	increase of mean polarization	decrease of mean fluorescence intensity	decrease in Rh123 fluorescence intensity is obvious and markedly significant	decrease of mean fluorescence intensity	–	–	–	–	–
O=c1[nH]cc(F)c(=O)[nH]1 [5FU, 5-Fluorouracil]	–	–	–	–	–	mild and not significant effects	no significant change in fluorescence intensity	no significant change of mean fluorescence intensity	no significant change of mean fluorescence polarization	no significant change of mean fluorescence intensity
